{"source": "PubChem BioAssay AID1259409", "about": "(Chemical Carcinogenesis Research Information System (CCRIS), 2018)", "origin": "cited, not measured here", "tested_on": "rodent chemically induced tumor inhibition, incidence and multiplicity", "assay": "CCRIS tumor inhibitor studies", "data": [{"smiles": "NC(=O)c1cccnc1", "values": [{"measurement": "tumour outcome (control, treated, inhibition, significance)", "setting": "Carcinogen: N-NITROSOBIS(2-OXOPROPYL)AMINE, 60599-38-4, Dose [Inhibitor]: 0, 0.2% IN DRINKING WATER FOR 49 WK POST CARCINOGEN TREATMENT (STUDY DURATION: 52 WK), Route [Inhibitor]: ORAL, Species: HAMSTER, Strain/Sex: SYRIAN GOLDEN/FEMALE, Target Tissue: Type of Lesion: TRACHEA: PAPILLOMA, Dose [Carcinogen]: 10 MG/KG BW 1/WK FOR FIRST 3 WK OF STUDY DURATION, Promoter: NONE", "value": "1/30 (3%), 0/29 (0%), 100%, not significant"}, {"measurement": "tumour outcome (control, treated, inhibition, significance)", "setting": "Carcinogen: N-NITROSOBIS(2-OXOPROPYL)AMINE, 60599-38-4, Dose [Inhibitor]: 0, 0.5% IN DRINKING WATER FOR 49 WK BEGINNING POST CARCINOGEN TREATMENT (STUDY DURATION: 52 WK), Route [Inhibitor]: ORAL, Species: HAMSTER, Strain/Sex: SYRIAN/FEMALE, Target Tissue: Type of Lesion: PANCREAS: ADENOCARCINOMA, Dose [Carcinogen]: 10 MG/KG 1/WK FOR 3 WK, Promoter: NONE", "value": "18/30 (60%), 21/30 (70%), -17%, not significant"}, {"measurement": "tumour outcome (control, treated, inhibition, significance)", "setting": "Carcinogen: N-NITROSOBIS(2-OXOPROPYL)AMINE, 60599-38-4, Dose [Inhibitor]: 0, 0.5% IN DRINKING WATER FOR 49 WK POST CARCINOGEN TREATMENT (STUDY DURATION: 52 WK), Route [Inhibitor]: ORAL, Species: HAMSTER, Strain/Sex: SYRIAN GOLDEN/FEMALE, Target Tissue: Type of Lesion: KIDNEY: NEPHROBLASTOMA, Dose [Carcinogen]: 10 MG/KG BW 1/WK FOR FIRST 3 WK OF STUDY DURATION, Promoter: NONE", "value": "2/30 (7%), 0/30 (0%), 100%, not significant"}, {"measurement": "outcome", "setting": "Carcinogen: N-NITROSOBIS(2-OXOPROPYL)AMINE, 60599-38-4, Dose [Inhibitor]: 0, 0.5% IN DRINKING WATER FOR 49 WK POST CARCINOGEN TREATMENT (STUDY DURATION: 52 WK), Route [Inhibitor]: ORAL, Species: HAMSTER, Strain/Sex: SYRIAN GOLDEN/FEMALE, Target Tissue: Type of Lesion: KIDNEY: RENAL CELL ADENOMA, Dose [Carcinogen]: 10 MG/KG BW 1/WK FOR FIRST 3 WK OF STUDY DURATION, Promoter: NONE", "value": "0/30 (0%), 2/30 (7%), -100%, not significant"}, {"measurement": "tumour outcome (control, treated, inhibition, significance)", "setting": "Carcinogen: N-NITROSOBIS(2-OXOPROPYL)AMINE, 60599-38-4, Dose [Inhibitor]: 0, 0.5% IN DRINKING WATER FOR 49 WK POST CARCINOGEN TREATMENT (STUDY DURATION: 52 WK), Route [Inhibitor]: ORAL, Species: HAMSTER, Strain/Sex: SYRIAN GOLDEN/FEMALE, Target Tissue: Type of Lesion: KIDNEY: RENAL CELL CARCINOMA, Dose [Carcinogen]: 10 MG/KG BW 1/WK FOR FIRST 3 WK OF STUDY DURATION, Promoter: NONE", "value": "1/30 (3%), 2/30 (7%), -133%, not significant"}, {"measurement": "tumour outcome (control, treated, inhibition, significance)", "setting": "Carcinogen: N-NITROSOBIS(2-OXOPROPYL)AMINE, 60599-38-4, Dose [Inhibitor]: 0, 0.5% IN DRINKING WATER FOR 49 WK POST CARCINOGEN TREATMENT (STUDY DURATION: 52 WK), Route [Inhibitor]: ORAL, Species: HAMSTER, Strain/Sex: SYRIAN GOLDEN/FEMALE, Target Tissue: Type of Lesion: LIVER: CHOLANGIOCELLULAR ADENOMA, Dose [Carcinogen]: 10 MG/KG BW 1/WK FOR FIRST 3 WK OF STUDY DURATION, Promoter: NONE", "value": "1/30 (3%), 3/30 (10%), -233%, not significant"}, {"measurement": "outcome", "setting": "Carcinogen: N-NITROSOBIS(2-OXOPROPYL)AMINE, 60599-38-4, Dose [Inhibitor]: 0, 0.5% IN DRINKING WATER FOR 49 WK POST CARCINOGEN TREATMENT (STUDY DURATION: 52 WK), Route [Inhibitor]: ORAL, Species: HAMSTER, Strain/Sex: SYRIAN GOLDEN/FEMALE, Target Tissue: Type of Lesion: LIVER: CHOLANGIOCELLULAR CARCINOMA, Dose [Carcinogen]: 10 MG/KG BW 1/WK FOR FIRST 3 WK OF STUDY DURATION, Promoter: NONE", "value": "0/30 (0%), 3/30 (10%), -%, not significant"}, {"measurement": "outcome", "setting": "Carcinogen: N-NITROSOBIS(2-OXOPROPYL)AMINE, 60599-38-4, Dose [Inhibitor]: 0, 0.5% IN DRINKING WATER FOR 49 WK POST CARCINOGEN TREATMENT (STUDY DURATION: 52 WK), Route [Inhibitor]: ORAL, Species: HAMSTER, Strain/Sex: SYRIAN GOLDEN/FEMALE, Target Tissue: Type of Lesion: LIVER: CYSTADENOMA, Dose [Carcinogen]: 10 MG/KG BW 1/WK FOR FIRST 3 WK OF STUDY DURATION, Promoter: NONE", "value": "0/30 (0%), 2/30 (7%), -%, not significant"}, {"measurement": "tumour outcome (control, treated, inhibition, significance)", "setting": "Carcinogen: N-NITROSOBIS(2-OXOPROPYL)AMINE, 60599-38-4, Dose [Inhibitor]: 0, 0.5% IN DRINKING WATER FOR 49 WK POST CARCINOGEN TREATMENT (STUDY DURATION: 52 WK), Route [Inhibitor]: ORAL, Species: HAMSTER, Strain/Sex: SYRIAN GOLDEN/FEMALE, Target Tissue: Type of Lesion: LIVER: HEPATOCELLULAR ADENOMA, Dose [Carcinogen]: 10 MG/KG BW 1/WK FOR FIRST 3 WK OF STUDY DURATION, Promoter: NONE", "value": "2/30 (7%), 4/30 (13%), -86%, not significant"}, {"measurement": "tumour outcome (control, treated, inhibition, significance)", "setting": "Carcinogen: N-NITROSOBIS(2-OXOPROPYL)AMINE, 60599-38-4, Dose [Inhibitor]: 0, 0.5% IN DRINKING WATER FOR 49 WK POST CARCINOGEN TREATMENT (STUDY DURATION: 52 WK), Route [Inhibitor]: ORAL, Species: HAMSTER, Strain/Sex: SYRIAN GOLDEN/FEMALE, Target Tissue: Type of Lesion: LIVER: HEPATOCELLULAR CARCINOMA, Dose [Carcinogen]: 10 MG/KG BW 1/WK FOR FIRST 3 WK OF STUDY DURATION, Promoter: NONE", "value": "2/30 (7%), 2/30 (7%), 0%, not significant"}, {"measurement": "tumour outcome (control, treated, inhibition, significance)", "setting": "Carcinogen: N-NITROSOBIS(2-OXOPROPYL)AMINE, 60599-38-4, Dose [Inhibitor]: 0, 0.5% IN DRINKING WATER FOR 49 WK POST CARCINOGEN TREATMENT (STUDY DURATION: 52 WK), Route [Inhibitor]: ORAL, Species: HAMSTER, Strain/Sex: SYRIAN GOLDEN/FEMALE, Target Tissue: Type of Lesion: LUNG: ADENOCARCINOMA, Dose [Carcinogen]: 10 MG/KG BW 1/WK FOR FIRST 3 WK OF STUDY DURATION, Promoter: NONE", "value": "11/30 (37%), 9/30 (30%), 19%, not significant"}, {"measurement": "tumour outcome (control, treated, inhibition, significance)", "setting": "Carcinogen: N-NITROSOBIS(2-OXOPROPYL)AMINE, 60599-38-4, Dose [Inhibitor]: 0, 0.5% IN DRINKING WATER FOR 49 WK POST CARCINOGEN TREATMENT (STUDY DURATION: 52 WK), Route [Inhibitor]: ORAL, Species: HAMSTER, Strain/Sex: SYRIAN GOLDEN/FEMALE, Target Tissue: Type of Lesion: LUNG: ADENOMA, Dose [Carcinogen]: 10 MG/KG BW 1/WK FOR FIRST 3 WK OF STUDY DURATION, Promoter: NONE", "value": "15/30 (50%), 17/30 (56.7%), -13%, not significant"}, {"measurement": "tumour outcome (control, treated, inhibition, significance)", "setting": "Carcinogen: N-NITROSOBIS(2-OXOPROPYL)AMINE, 60599-38-4, Dose [Inhibitor]: 0, 0.5% IN DRINKING WATER FOR 49 WK POST CARCINOGEN TREATMENT (STUDY DURATION: 52 WK), Route [Inhibitor]: ORAL, Species: HAMSTER, Strain/Sex: SYRIAN GOLDEN/FEMALE, Target Tissue: Type of Lesion: LUNG: SQUAMOUS CELL CARCINOMA, Dose [Carcinogen]: 10 MG/KG BW 1/WK FOR FIRST 3 WK OF STUDY DURATION, Promoter: NONE", "value": "2/30 (7%), 2/30 (7%), 0%, not significant"}, {"measurement": "tumour outcome (control, treated, inhibition, significance)", "setting": "Carcinogen: N-NITROSOBIS(2-OXOPROPYL)AMINE, 60599-38-4, Dose [Inhibitor]: 0, 0.5% IN DRINKING WATER FOR 49 WK POST CARCINOGEN TREATMENT (STUDY DURATION: 52 WK), Route [Inhibitor]: ORAL, Species: HAMSTER, Strain/Sex: SYRIAN GOLDEN/FEMALE, Target Tissue: Type of Lesion: PANCREAS (DUCTAL): ADENOCARCINOMA, Dose [Carcinogen]: 10 MG/KG BW 1/WK FOR FIRST 3 WK OF STUDY DURATION, Promoter: NONE", "value": "18/30 (60%), 21/30 (70%), -17%, not significant"}, {"measurement": "tumour outcome (control, treated, inhibition, significance)", "setting": "Carcinogen: N-NITROSOBIS(2-OXOPROPYL)AMINE, 60599-38-4, Dose [Inhibitor]: 0, 0.5% IN DRINKING WATER FOR 49 WK POST CARCINOGEN TREATMENT (STUDY DURATION: 52 WK), Route [Inhibitor]: ORAL, Species: HAMSTER, Strain/Sex: SYRIAN GOLDEN/FEMALE, Target Tissue: Type of Lesion: THYROID: ADENOMA, Dose [Carcinogen]: 10 MG/KG BW 1/WK FOR FIRST 3 WK OF STUDY DURATION, Promoter: NONE", "value": "1/30 (3%), 0/30 (0%), 100%, not significant"}, {"measurement": "tumour outcome (control, treated, inhibition, significance)", "setting": "Carcinogen: N-NITROSOBIS(2-OXOPROPYL)AMINE, 60599-38-4, Dose [Inhibitor]: 0, 350 MG/KG 10 MIN PRIOR TO AND 3 HR POST CARCINOGEN DOSE (STUDY DURATION: 52 WK), Route [Inhibitor]: INTRAPERITONEAL, Species: HAMSTER, Strain/Sex: SYRIAN/MALE, FEMALE, Target Tissue: Type of Lesion: PANCREAS: DUCTAL/DUCTULAR CARCINOMA, Dose [Carcinogen]: 10 MG/KG ONCE, Promoter: NONE USED", "value": "5/60 (8%), 0/35 (0%), 100%, p<0.0001"}, {"measurement": "tumour outcome (control, treated, inhibition, significance)", "setting": "Carcinogen: N-NITROSOBIS(2-OXOPROPYL)AMINE, 60599-38-4, Dose [Inhibitor]: 0, 350 MG/KG 10 MIN PRIOR TO AND 3 HR POST CARCINOGEN DOSE (STUDY DURATION: 52 WK), Route [Inhibitor]: INTRAPERITONEAL, Species: HAMSTER, Strain/Sex: SYRIAN/MALE, FEMALE, Target Tissue: Type of Lesion: PANCREAS: DUCTULAR ADENOMA, Dose [Carcinogen]: 10 MG/KG ONCE, Promoter: NONE USED", "value": "25/60 (42%), 5/35 (14%), 67%, p=0.05"}, {"measurement": "tumour outcome (control, treated, inhibition, significance)", "setting": "Carcinogen: URETHANE, 51-79-6, Dose [Inhibitor]: 1.0% (1.02 MG/G BW/D) IN POWDERED DIET FOR 10 D POST CARCINOGEN DOSE (STUDY DURATION: 5 MO), Route [Inhibitor]: ORAL, Species: MOUSE, Strain/Sex: ICR/FEMALE, Target Tissue: Type of Lesion: LUNG: TUMOR, Dose [Carcinogen]: 1 MG/G ONCE, Promoter: NONE USED", "value": "27/31 (87%), 47/51 (92%), -6%, not calculated"}, {"measurement": "tumour outcome (control, treated, inhibition, significance)", "setting": "Carcinogen: URETHANE, 51-79-6, Dose [Inhibitor]: 2.5% (2.83 MG/G BW/D) IN POWDERED DIET FOR 10 D POST CARCINOGEN DOSE (STUDY DURATION: 5 MO), Route [Inhibitor]: ORAL, Species: MOUSE, Strain/Sex: ICR/FEMALE, Target Tissue: Type of Lesion: LUNG: TUMOR, Dose [Carcinogen]: 1 MG/G ONCE, Promoter: NONE USED", "value": "27/31 (87%), 47/54 (87%), 0%, not calculated"}]}]}
